# Assay results reported in patent US12398101B2, “Herbicidal 2-azaspiro[3-5]nonane compounds” (SYNGENTA CROP PROTECTION AG, priority 2018, dated 2025).
# Assays:
# Assay type in all cases: in vivo
# Avena fatua (AVEFA) [1] = assay: Glasshouse herbicide test, post-emergence application; details: 250 g/h, evaluated after 13 days
# Description: (§1) Seeds of a variety of test species are sown in standard soil in pots (Lolium perenne (LOLPE), Setaria faberi (SETFA), Echinochloa crus-galli (ECHCG), Avena fatua (AVEFA)). After cultivation for one day (pre-emergence) or after 8 days cultivation (post-emergence) under controlled conditions in a glasshouse (at 24/16° C., day/night; 14 hours light; 65% humidity), the plants are sprayed with an aqueous spray solution derived from the formulation of the technical active ingredient in acetone/water (50:50) solution containing 0.5% Tween 20 (polyoxyethelyene sorbitan monolaurate, CAS RN 9005-64-5). Compounds are applied at 250 g/h. The test plants are then grown in a glasshouse under controlled conditions in a glasshouse (at 24/16° C., day/night; 14 hours light; 65% humidity) and watered twice daily. After 13 days for pre and post-emergence, the test is evaluated for the percentage damage caused to the plant. The biological activities are shown in the following table on a five point scale (5=80-100%; 4=60-79%; 3=40-59%; 2=20-39%; 1=0-19%).
# Lolium perenne (LOLPE) [2] = assay: as above; details: 250 g/h, evaluated after 13 days
# Description: as §1
# Setaria faberi (SETFA) [3] = assay: as above; details: 250 g/h, evaluated after 13 days
# Description: as §1
# [4] = system: Echinochloa crus-galli (ECHCG); assay: as above; details: 250 g/h, evaluated after 13 days
# Description: as §1
# barley = assay: Prior art comparison, post-emergence, crop plants
# wheat = assay: Prior art comparison, post-emergence, crop plants; details: for Wheat (percentage damage): post-emergence
# Avena fatua (AVEFA) [5] = assay: Glasshouse herbicide test, pre-emergence application; details: 250 g/h, evaluated after 13 days
# Description: as §1
# Lolium perenne (LOLPE) [6] = assay: as above; details: 250 g/h, evaluated after 13 days
# Description: as §1
# Setaria faberi (SETFA) [7] = assay: as above; details: 250 g/h, evaluated after 13 days
# Description: as §1
# [8] = system: Echinochloa crus-galli (ECHCG); assay: as above; details: 250 g/h, evaluated after 13 days
# Description: as §1
# [9] = system: Panicum miliaceum (PANMI); assay: Prior art comparison, post-emergence, representative weed; details: for PANMI (percentage damage): post-emergence
Compound,"percentage damage caused to the plant, five point scale, AVEFA (Avena fatua (AVEFA) [1])","percentage damage caused to the plant, five point scale, LOLPE (Lolium perenne (LOLPE) [2])","percentage damage caused to the plant, five point scale, SETFA (Setaria faberi (SETFA) [3])","percentage damage caused to the plant, five point scale, ECHCG [4]",Barley (percentage damage) (barley; Rate 60),Barley (percentage damage) (barley; Rate 125),Wheat (percentage damage) (wheat; Rate 60),Wheat (percentage damage) (wheat; Rate 60 + CQC (safener cloquintocet-mexyl at 50 g/ha)),Wheat (percentage damage) (wheat; Rate 125),"crop safety vis-à-vis prior art compound C1 (wheat; wheat and barley, summary of Table B3)","percentage damage caused to the plant, five point scale, AVEFA (Avena fatua (AVEFA) [5])","percentage damage caused to the plant, five point scale, LOLPE (Lolium perenne (LOLPE) [6])","percentage damage caused to the plant, five point scale, SETFA (Setaria faberi (SETFA) [7])","percentage damage caused to the plant, five point scale, ECHCG [8]",PANMI (percentage damage) ([9]; Rate 60),PANMI (percentage damage) ([9]; Rate 125),overall weed control ([9]; summary of Table B3)
"CC#Cc1cc(C)c(C2C(=O)CC3(CC2=O)CN(C(C)=O)C3)c(C)c1 [Compound 1.001, 2-acetyl-7-(2,6-dimethyl-4-prop-1-ynyl-phenyl)-2-azaspiro[3.5]nonane-6,8-dione]",5 (5=80-100%),5 (5=80-100%),5 (5=80-100%),5 (5=80-100%),0,0,0,0,0,significantly improved crop safety,5 (5=80-100%),5 (5=80-100%),5 (5=80-100%),2 (2=20-39%),100,100,good overall weed control
CC#Cc1cc(C)c(C2C(=O)CC3(CC2=O)CN(C(=O)COC)C3)c(OC)c1 [Compound 1.017],5 (5=80-100%),5 (5=80-100%),5 (5=80-100%),4 (4=60-79%),–,–,–,–,–,–,5 (5=80-100%),5 (5=80-100%),5 (5=80-100%),5 (5=80-100%),–,–,–
CC#Cc1cc(C)c(C2C(=O)CC3(CC2=O)CN(C(=O)NC(=O)c2ccccn2)C3)c(OC)c1 [Compound 1.022],5 (5=80-100%),5 (5=80-100%),5 (5=80-100%),5 (5=80-100%),–,–,–,–,–,–,2 (2=20-39%),3 (3=40-59%),5 (5=80-100%),4 (4=60-79%),–,–,–
CC#Cc1cc(C)c(C2C(=O)CC3(CC2=O)CN(C(=O)NC(C)(C)C)C3)c(OC)c1 [Compound 1.018],5 (5=80-100%),5 (5=80-100%),5 (5=80-100%),5 (5=80-100%),–,–,–,–,–,–,5 (5=80-100%),5 (5=80-100%),5 (5=80-100%),5 (5=80-100%),–,–,–
